We go through 9 compounds from patent US11498929B2, “Chromenopyrimidine derivatives as phosphatidylinsitol phosphate kinase inhibitors” (Hibercell, Inc., priority 2019, dated 2022).

One assay concerns the target T1, PIP4K2A (Homo sapiens, UniProt P48426).
T1 construct: GST; made in house; host or cells: E. coli
T1 sequence (P48426 1-406): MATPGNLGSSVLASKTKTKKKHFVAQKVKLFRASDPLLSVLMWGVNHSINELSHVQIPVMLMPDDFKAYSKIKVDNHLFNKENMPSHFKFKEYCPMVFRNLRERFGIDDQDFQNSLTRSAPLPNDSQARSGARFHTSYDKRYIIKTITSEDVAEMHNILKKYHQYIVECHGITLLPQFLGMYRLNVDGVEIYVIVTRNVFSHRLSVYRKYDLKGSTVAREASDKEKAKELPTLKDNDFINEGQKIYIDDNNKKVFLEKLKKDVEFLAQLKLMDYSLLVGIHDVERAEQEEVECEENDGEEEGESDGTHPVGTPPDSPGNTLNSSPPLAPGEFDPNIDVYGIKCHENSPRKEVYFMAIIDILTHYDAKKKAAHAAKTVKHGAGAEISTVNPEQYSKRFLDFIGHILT
Description: Kinase Assay - PIP4K2 A (inhibition of PIP4K2 A kinase assay). Type of assay: biochemical. The settings on record: compounds listed under IC50 bin headings. Here is the method: Dilution series of the compounds were prepared in DMSO at 100 times the final assay concentration (n1=n0/3 in 10 points). The compounds were further diluted to three times the assay concentration in assay buffer (20 mM MOPS pH 7.2, 25 mM magnesium chloride, 0.005% Tween 20). 6 μL of the diluted compounds were added to a 384 well assay plate followed by 9 μL of a mix consisting of 4 nM PIP4K2A (full length protein, SignalChem) and 100 μM PI(5)P diC8 (Tebu-Bio). Enzyme and compounds were pre-incubated at room temperature for 15 minutes.
Then 3 μL of a solution containing 60 μM ATP (Promega) in assay buffer was added to the wells containing compound and enzyme and mixing was performed by pipetting several times. The reaction was incubated at room temperature for 1 h. Then 18 μL of ADP-Glo™ Reagent (Promega) was added to stop the kinase reaction and deplete the unconsumed ATP, mixing was performed by pipetting several times. The plate was incubated at room temperature for 40 minutes before addition of 36 μL of Kinase Detection Reagent (Promega) to convert ADP to ATP and introduce luciferase and luciferin to detect ATP. The reaction was incubated at room temperature for 40 minutes before the luminescence was measured in a in a Victor 3V 1420 multilabel counter (Perkin Elmer).
Percent inhibition of the compounds as compared to dimethyl sulfoxide treated control samples was calculated. Compound concentration versus percent inhibition were fitted to generate IC50 values. […]

Assay [1] addresses T2, PIP4K2 B (GST-tagged PIP4KtypeIIB) (Homo sapiens, UniProt P78356).
T2 construct: GST; made in house; host or cells: E. coli
T2 sequence (P78356 1-416): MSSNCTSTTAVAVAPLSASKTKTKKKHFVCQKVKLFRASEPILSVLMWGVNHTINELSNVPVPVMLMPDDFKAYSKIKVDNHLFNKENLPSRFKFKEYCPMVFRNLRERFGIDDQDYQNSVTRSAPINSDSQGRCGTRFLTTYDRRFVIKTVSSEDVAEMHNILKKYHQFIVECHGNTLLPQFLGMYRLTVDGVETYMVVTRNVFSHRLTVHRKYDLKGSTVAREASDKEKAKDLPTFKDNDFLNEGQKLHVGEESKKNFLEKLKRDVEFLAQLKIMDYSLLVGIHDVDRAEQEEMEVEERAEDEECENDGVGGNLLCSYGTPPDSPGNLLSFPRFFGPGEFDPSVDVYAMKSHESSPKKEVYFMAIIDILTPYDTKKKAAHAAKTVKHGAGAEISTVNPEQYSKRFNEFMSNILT
Nature of the assay: Kinase Assay - PIP4K2 B (inhibition of PIP4K2 B kinase assay). The conditions noted are these: compounds listed under IC50 bin headings. Type of assay: biochemical. The text has this: GST tagged PIP4KtypeIIA and B enzymes were overexpressed in E. Coli and purified to >80% homogeneity. Phosphatidyl inositol-5-phosphate (PI5P, Cat. #850152, Avanti Polar Lipids Inc.) was used as the lipid substrate and phosphatidyl ethanolamine (DOPE 18:1, Cat. #850725, Avanti Polar Lipids Inc.) was used as the carrier lipid for assays. Ultrapure ATP and GTP was purchased from Bellbrooke Labs. ADP Glo reagents were obtained from Promega. Transcreener FI reagent was obtained from Bellbrooke labs.
GST-tagged PIP4KtypeIIB (3.4 uL, 2.77 mg/mL) was diluted to 5 mL using HNE buffer to yield 5× enzyme stock (25 nM)
Lipid Preparation: In a 10 mL pyrex glass vial, 1 ug of PI5P and 1 ug of DOPE were suspended in 2.5 mL of HEPES buffer mix and 2.5 mL of H:E buffer. The contents were mixed and sonicated for 3 min to yield a translucent lipid stock.
Compound Preparation: Compounds were stored as 5 mM stocks in neat DMSO as room temperature in glass vials. 5 mM stocks were diluted to 2 mM and then serially diluted (3×) in neat DMSO in 96 well polypropylene plates. From the serially diluted stocks, 3 uL was delivered into 250 uL of 25% DMSO (in water) to generate 5× compound stocks. Typically, the highest compound conc. was 24 uM.
The assay volume was kept at 25 uL. To each well of the reaction plate, 10 uL of lipid stock (1:1 ratio PI5P:DOPE) was delivered. This was followed by the addition of 5 uL of compound in 25% DMSO. Then, to each well, 5 uL of 25 nM (5×) typeIIB enzyme was delivered. The contents were mixed well and incubated for 1 h at 27 C. After 1 h, reaction was initiated by adding 5 uL of 500 uM GTP and the contents were mixed well with a multi-channel pipetteman. The final concentration of the reagents are as follows: 50 mM HEPES, pH 7.3, 10 mM MgCl2, 20 mM NaCl, 0.01% v/v triton-X100, 5% DMSO, 100 uM GTP, 80 uM (2 ug) PI5P, 2 ug DOPE, and 5 nM PIP4KIIB Typically, the highest conc. of compounds was 4.8 uM and the lowest conc. was 0.
After 2 h, the reaction was quenched by adding 25 uL of transcreener FI reagent. The contents were incubated at RT for 1 h and the Fluorescence (Ex:584 Em: 623) was read using Molecular Devices Paradigm plate reader. […] The blanks were averaged and subtracted from all other wells. Using a calibration curve, RFU was converted to uM GDP (product). IC50 was calculated by plotting the residual activity (expressed as % No inhibitor control) vs. log [Inh. conc.]

Another assay deals with MOLM-16. Nature of the assay: MOLM-16 EC50 assay. Type of assay: cell-based. The conditions noted are these: MOLM16.

pEC50, pIC50: −log10 of the molar value.

As a reminder, the pIC50 is the negative decadic logarithm of the IC50, by convention in mol/L. Higher therefore signals a small IC50. As a reminder, the pEC50 is the negative decadic logarithm of the EC50, by convention in mol/L. A low value points to a high EC50. Regarding `CC1(C)Oc2cc(N3CCCC3=O)ccc2-c2cnc(Nc3cnc4c(c3)N(C(=O)NC3CC3)CCO4)nc21` [Compound 23, N-cyclopropyl-7-{[5,5-dimethyl-8-(2-oxopyrrolidin-1-yl)-5H-chromeno[3,4-d]pyrimidin-3-yl]amino}-1H,2H,3H-pyrido[2,3-b][1,4]oxazine-1-carboxamide], the pIC50 on PIP4K2A is 8.00 to 9.00; in assay [1], 7.00 to 8.00. The compound further showed a pEC50 in the assay on MOLM-16 of 7.00 to 8.00.
Regarding `CN(C)C1CCN(c2cncc(Nc3ncc4c(n3)C(C)(C)Oc3cc(N5CCCC5=O)ccc3-4)c2)CC1` [Compound 25, 1-[3-({5-[4-(dimethylamino)piperidin-1-yl]pyridin-3-yl}amino)-5,5-dimethyl-5H-chromeno[3,4-d]pyrimidin-8-yl]pyrrolidin-2-one], the pIC50 is 8.00 to 9.00 on PIP4K2A and 7.00 to 8.00 in assay [1]. This compound also showed a pEC50 in the assay with MOLM-16 of 7.00 to 8.00.
With `CN1CCOc2ncc(Nc3ncc4c(n3)C(C)(C)Oc3cc(N5C(=O)CCC56CC6)ccc3-4)cc21` [Compound 26, 4-[5,5-dimethyl-3-({1-methyl-1H,2H,3H-pyrido[2,3-b][1,4]oxazin-7-yl}amino)-5H-chromeno[3,4-d]pyrimidin-8-yl]-4-azaspiro[2.4]heptan-5-one], the pIC50 (on PIP4K2A; in assay [1]) was 8.00 to 9.00 each time. Also, the pEC50 with MOLM-16 was 6.00 to 7.00.
For `CC(=O)OC(C)(C)C(=O)N1CCOc2ncc(Nc3ncc4c(n3)C(C)(C)Oc3cc(-c5nocc5C)ccc3-4)cc21` [Compound 29, 1-(7-{[5,5-dimethyl-8-(4-methyl-1,2-oxazol-3-yl)-5H-chromeno[3,4-d]pyrimidin-3-yl]amino}-1H,2H,3H-pyrido[2,3-b][1,4]oxazin-1-yl)-2-methyl-1-oxopropan-2-yl acetate], the figures for the pIC50 (against PIP4K2A; in assay [1]) were 8.00 to 9.00 and 7.00 to 8.00, respectively. In the assay with MOLM-16, this compound showed a pEC50 below 6.00.
The matching figures for `CC1(C)Oc2cc(N3CCCC3=O)ccc2-c2cnc(Nc3cncc(CNCCS(C)(=O)=O)c3)nc21` [Compound 31, 1-{3-[(5-{[(2-methanesulfonylethyl)amino]methyl}pyridin-3-yl)amino]-5,5-dimethyl-5H-chromeno[3,4-d]pyrimidin-8-yl}pyrrolidin-2-one]: 7.00 to 8.00, 7.00 to 8.00 and 7.00 to 8.00.
The like results for `CCN(CC)CCN(C)c1cncc(Nc2ncc3c(n2)C(C)(C)Oc2cc(N4CCCC4=O)ccc2-3)c1` [Compound 32, 1-{3-[(5-{[2-(diethylamino)ethyl](methyl)amino}pyridin-3-yl)amino]-5,5-dimethyl-5H-chromeno[3,4-d]pyrimidin-8-yl}pyrrolidin-2-one] were, in that order, 7.00 to 8.00, 6.00 to 7.00 and 7.00 to 8.00.
The matching figures for `CN(C)CCOc1cncc(Nc2ncc3c(n2)C(C)(C)Oc2cc(N4CCCC4=O)ccc2-3)c1` [Compound 33, 1-[3-({5-[2-(dimethylamino)ethoxy]pyridin-3-yl}amino)-5,5-dimethyl-5H-chromeno[3,4-d]pyrimidin-8-yl]pyrrolidin-2-one]: 7.00 to 8.00, 6.00 to 7.00 and 7.00 to 8.00.
As for `CN1CCN(CC(=O)N(C)c2cncc(Nc3ncc4c(n3)C(C)(C)Oc3cc(N5CCCC5=O)ccc3-4)c2)CC1` [Compound 35, N-(5-{[5,5-dimethyl-8-(2-oxopyrrolidin-1-yl)-5H-chromeno[3,4-d]pyrimidin-3-yl]amino}pyridin-3-yl)-N-methyl-2-(4-methylpiperazin-1-yl)acetamide], the pIC50 on PIP4K2A was 6.00 to 7.00; in assay [1], below 6.00. Further, the pEC50 in the assay on MOLM-16 is 6.00 to 7.00.
Regarding `CCN(CC)CCN1CCOc2ncc(Nc3ncc4c(n3)C(C)(C)Oc3cc(N5CCCC5=O)ccc3-4)cc21` [Compound 36, 1-[3-({1-[2-(diethylamino)ethyl]-1H,2H,3H-pyrido[2,3-b][1,4]oxazin-7-yl}amino)-5,5-dimethyl-5H-chromeno[3,4-d]pyrimidin-8-yl]pyrrolidin-2-one], the pIC50 at PIP4K2A is 6.00 to 7.00; in assay [1], below 6.00. Further, the pEC50 in the assay on MOLM-16 is 7.00 to 8.00.
